The IC50 is the midpoint of a concentration-inhibition curve.

The record followed here is ChEMBL document CHEMBL1799972, “Grandilodines A-C, biologically active indole alkaloids from Kopsia grandifolia” (J Nat Prod, 2011).

One experiment has as its system KB/VJ300. Put plainly: Reversal of multidrug-resistance in vincristine-resistant human KB/VJ300 cells in presence of 0.1 ug/ml vincristine. In kind it is functional, cell-based.
Experiment [1] is described as follows: Cytotoxicity in vincristine-resistant human KB/VJ300 cells in presence of 0.1 ug/ml vincristine. In kind it is cell-based.
In another experiment the test system is KB. Put plainly: Cytotoxicity against vincristine-sensitive human KB cells in presence of 0.1 ug/ml vincristine. In kind it is cell-based.

As to `COC(=O)[C@@H]1C[C@]23CCCN2CC[C@]2(C(=O)OC)c4ccccc4N(C(=O)OC)[C@]12CC3` [GRANDILODINE A], the IC50 in the experiment on KB/VJ300 stood at 4.35 µg/mL.
In the case of `COC(=O)N1c2ccccc2[C@]23CCN4C(=O)C=C[C@]45CC[C@]12[C@@H](C5)C(=O)O3` [GRANDILODINE C], in the experiment on KB/VJ300, the IC50 is 4.11 µg/mL.
Same read-out and setting: for `COC(=O)N1c2ccccc2[C@]23CCN4CC=C[C@]45CC[C@]12[C@@H](C5)C(=O)O3` [LAPIDILECTINE B] the value was 0.39 µg/mL.
As to `CC[C@]1(O)C[C@H]2CN(CCc3c([nH]c4ccccc34)[C@@](C(=O)OC)(c3cc4c(cc3OC)N(C=O)[C@H]3[C@@](O)(C(=O)OC)[C@H](OC(C)=O)[C@]5(CC)C=CCN6CC[C@]43[C@@H]65)C2)C1` [VINCRISTINE], the IC50 (in experiment [1]; in the experiment with KB) was greater than 25 µg/mL each time.
